From US10675284B2, “Treatment of B-cell malignancies by a combination JAK and PI3K inhibitors” (Incyte Corporation, priority 2014, dated 2020) come the findings set out here.

The target in one assay is PI3Kδ (p110δ/p85α) (Homo sapiens (Human), UniProt O00329). Briefly: PI3Kδ scintillation proximity assay. The class given is biochemical. Particulars: 20 μM ATP. For orientation: In a scintillation proximity assay essentially only radioactivity close to the scintillant gives light.
Assay [1] concerns Pfeiffer cells. The experiment in a line: Western blot analysis of Pfeiffer cells. It is filed as cell-based, human. Particulars: for STAT3 phosphorylation / pAKT: 4 hours, then IL-10 for 15 minutes. As for the experimental part: The following materials and methods were used in the Western blot analysis infra. Cells (5 million) were lysed in a 300 μl volume of lysis buffer. Soluble fractions were collected by centrifugation. 25 μl of cell lysate were loaded into Tris-Glycine polyacrylamide gels and subjected to electrophoresis. The proteins were transferred into nitrocellulose membrane and probed with antibodies from Cell Signaling Technology for the following proteins: phospho-Stat3 Y705, phospho-Akt 5473, pim1, pim2, pim3, c-myc, phospho-p70S6K, phosho-S6, phospho-Bad S112 and actin.
IL6 and IL10 promote cell survival through the expression of Pim2, which is dependent on JAK1 activity.
Extracts were analyzed by Western blot for pAKT and pSTAT3.

In assay [2] the target is human JAK1 (a.a. 837-1142) (Homo sapiens, UniProt P23458). The experiment in a line: In vitro JAK kinase assay (HTRF), JAK1. It is filed as biochemical. Particulars: 1 mM ATP; read-out: JAK1 IC50. On the technique in general: Time-resolved FRET reads energy transfer from a long-lived donor to a nearby acceptor.
Chain of human JAK1 (a.a. 837-1142) (P23458 whole entry, looked up): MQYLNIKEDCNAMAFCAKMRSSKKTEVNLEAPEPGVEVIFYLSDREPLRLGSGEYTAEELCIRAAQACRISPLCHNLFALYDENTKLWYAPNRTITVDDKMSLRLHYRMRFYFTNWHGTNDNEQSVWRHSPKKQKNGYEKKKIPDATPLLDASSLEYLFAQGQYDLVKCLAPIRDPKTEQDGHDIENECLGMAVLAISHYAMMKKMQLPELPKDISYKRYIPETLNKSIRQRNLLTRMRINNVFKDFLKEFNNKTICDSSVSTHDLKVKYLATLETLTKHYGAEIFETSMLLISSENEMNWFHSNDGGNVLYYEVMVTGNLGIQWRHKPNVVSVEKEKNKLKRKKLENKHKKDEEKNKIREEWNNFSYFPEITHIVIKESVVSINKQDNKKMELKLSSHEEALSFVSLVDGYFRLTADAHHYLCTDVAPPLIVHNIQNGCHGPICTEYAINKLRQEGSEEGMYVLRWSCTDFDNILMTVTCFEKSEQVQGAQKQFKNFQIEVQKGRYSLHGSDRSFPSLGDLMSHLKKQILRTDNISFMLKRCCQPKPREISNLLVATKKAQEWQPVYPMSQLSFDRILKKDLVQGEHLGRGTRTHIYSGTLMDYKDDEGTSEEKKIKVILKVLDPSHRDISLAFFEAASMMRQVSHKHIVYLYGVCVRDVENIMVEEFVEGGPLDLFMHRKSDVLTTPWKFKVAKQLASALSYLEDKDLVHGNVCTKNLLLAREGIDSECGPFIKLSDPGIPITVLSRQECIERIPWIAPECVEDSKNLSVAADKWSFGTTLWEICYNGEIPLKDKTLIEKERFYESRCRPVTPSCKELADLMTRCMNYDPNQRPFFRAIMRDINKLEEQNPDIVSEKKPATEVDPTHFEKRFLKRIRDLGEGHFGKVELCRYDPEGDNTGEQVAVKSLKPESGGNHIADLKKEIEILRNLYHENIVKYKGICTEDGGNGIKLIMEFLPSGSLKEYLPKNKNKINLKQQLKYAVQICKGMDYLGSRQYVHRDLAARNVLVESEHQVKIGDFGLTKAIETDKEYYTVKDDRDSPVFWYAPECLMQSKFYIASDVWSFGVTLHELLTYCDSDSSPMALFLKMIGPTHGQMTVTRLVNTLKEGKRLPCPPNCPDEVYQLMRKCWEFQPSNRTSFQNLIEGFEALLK
For assay [3], the target named is human JAK2 (a.a. 828-1132) (Homo sapiens (Human), UniProt O60674). The experiment in a line: In vitro JAK kinase assay (HTRF), JAK2. Particulars: IC50 ratio, 1 mM ATP. It is filed as biochemical.
Chain of human JAK2 (a.a. 828-1132) (O60674 828-1132): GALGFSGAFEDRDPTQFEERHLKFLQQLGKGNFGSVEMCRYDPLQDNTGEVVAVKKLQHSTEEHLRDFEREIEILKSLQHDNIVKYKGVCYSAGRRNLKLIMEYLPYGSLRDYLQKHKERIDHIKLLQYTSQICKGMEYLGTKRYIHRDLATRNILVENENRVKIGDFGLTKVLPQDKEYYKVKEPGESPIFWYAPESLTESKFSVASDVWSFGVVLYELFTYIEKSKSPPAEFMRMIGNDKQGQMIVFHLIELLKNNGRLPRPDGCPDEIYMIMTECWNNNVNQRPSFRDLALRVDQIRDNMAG
The test system of assay [4] is Pfeiffer cells. Briefly: Cell proliferation assay in Pfeiffer cells. The class given is cell-based, human. Particulars: for IC50: Homo sapiens, Pfeiffer, 72 h, Pfeiffer cells, 3 days, read-out: IC50, cell growth.
Method: Diffuse large B cell lymphoma cells were seeded at 2000 cell/well in 96 well culture plates in the absence or presence of 10 ng/ml IL10. Compounds were added to these cells after dilution in DMSO first, followed by dilution in culture medium (4× concentration). The cells were cultured in an incubator for 3 days with 5% CO2. Cell proliferation was assessed using the Cell titer-glow assay (Promega, Madison, Wis.).
The test system of assay [5] is Pfeiffer cells. Briefly: Annexin-V staining of Pfeiffer cells (apoptosis). The class given is cell-based, human. Particulars: 3 days, 10% FBS + IL10, Compound 16 at 1 μM.
Assay [6] has as its system Pfeiffer human tumor xenograft. Briefly: Pfeiffer model of lymphoma (human tumor xenograft in SCID mice). It is filed as in vivo, mouse. Here is the method:
Female SCID mice, (5 to 8 weeks of age, Charles River Laboratories, Wilmington, Mass.) were inoculated with 1×10^7 tumor cells (Pfeiffer, ATCC #CRL-2632, Manassas, Va.) and matrigel (BD Biosciences #354234) in 0.2 mL sterile saline. The inoculation was performed subcutaneously on the flank. Tumor tissue fragments (approximately 3 mm×3 mm) were collected 3 to 6 weeks after the inoculation of cultured cells and implanted subcutaneously in lieu of cellular inoculation. Tissue fragments were implanted as solid pieces using blunt-tip forceps. The treatment of tumor bearing mice was started 15 to 25 days after tumor inoculation, depending upon the tumor size. Animals were sorted to obtain roughly equivalent mean tumor volumes in each group. Minimum mean tumor volume in all groups was 150 mm3 on the first day of treatment and groups consisted of 7 animals. Experimental therapeutic agent, Example 347, was administered to mice orally (PO). Treatment frequency was 2 times daily for a minimum of 14 days for efficacy. The size of subcutaneous tumors was measured 2 to 3 times weekly using a digital caliper. The tumor volume was calculated by measuring the tumor in 2 dimensions and utilizing the equation: Volume=[Length×(Width2)]/2; where the larger number was length, and the smaller number width. If multiple tumors were formed, the final volume was the sum of the individual tumors subject to the same equation: eg, 2 tumors; Volume={[L1×(W1)2]/2}+{[L2×(W2)2]/2}. Effects on tumor growth were reported as percent tumor growth inhibition (% TGI). Percent TGI was calculated with the equation: (1−(Tx vol./control vol.))*100, where control volume was the vehicle or untreated tumor volume on a given day, and Tx volume was any treatment group tumor volume on that same day. Statistical differences between treatment and vehicle controls were assessed using ANOVA: Single Factor test.
Compound 32c (Table 2 supra) was evaluated as a single agent in the Pfeiffer human tumor xenograft model of diffuse large B-cell lymphoma, a subtype of NHL. […] Therefore, a tumor model was established based on subcutaneous inoculation of tumor cells into immune compromised SCID mice and tumor-bearing mice received twice daily oral doses of vehicle or Compound 32c at 0.3, 1, 3, or 10 mg/kg for 14 days.

[7] abbreviates: 10% FBS + IL10, ATP readout, Compound 16 at 1 μM in combination.

Read-outs that look alike come from different tables or passages of the source.

Chain of PI3Kδ (p110δ/p85α) (O00329 whole entry): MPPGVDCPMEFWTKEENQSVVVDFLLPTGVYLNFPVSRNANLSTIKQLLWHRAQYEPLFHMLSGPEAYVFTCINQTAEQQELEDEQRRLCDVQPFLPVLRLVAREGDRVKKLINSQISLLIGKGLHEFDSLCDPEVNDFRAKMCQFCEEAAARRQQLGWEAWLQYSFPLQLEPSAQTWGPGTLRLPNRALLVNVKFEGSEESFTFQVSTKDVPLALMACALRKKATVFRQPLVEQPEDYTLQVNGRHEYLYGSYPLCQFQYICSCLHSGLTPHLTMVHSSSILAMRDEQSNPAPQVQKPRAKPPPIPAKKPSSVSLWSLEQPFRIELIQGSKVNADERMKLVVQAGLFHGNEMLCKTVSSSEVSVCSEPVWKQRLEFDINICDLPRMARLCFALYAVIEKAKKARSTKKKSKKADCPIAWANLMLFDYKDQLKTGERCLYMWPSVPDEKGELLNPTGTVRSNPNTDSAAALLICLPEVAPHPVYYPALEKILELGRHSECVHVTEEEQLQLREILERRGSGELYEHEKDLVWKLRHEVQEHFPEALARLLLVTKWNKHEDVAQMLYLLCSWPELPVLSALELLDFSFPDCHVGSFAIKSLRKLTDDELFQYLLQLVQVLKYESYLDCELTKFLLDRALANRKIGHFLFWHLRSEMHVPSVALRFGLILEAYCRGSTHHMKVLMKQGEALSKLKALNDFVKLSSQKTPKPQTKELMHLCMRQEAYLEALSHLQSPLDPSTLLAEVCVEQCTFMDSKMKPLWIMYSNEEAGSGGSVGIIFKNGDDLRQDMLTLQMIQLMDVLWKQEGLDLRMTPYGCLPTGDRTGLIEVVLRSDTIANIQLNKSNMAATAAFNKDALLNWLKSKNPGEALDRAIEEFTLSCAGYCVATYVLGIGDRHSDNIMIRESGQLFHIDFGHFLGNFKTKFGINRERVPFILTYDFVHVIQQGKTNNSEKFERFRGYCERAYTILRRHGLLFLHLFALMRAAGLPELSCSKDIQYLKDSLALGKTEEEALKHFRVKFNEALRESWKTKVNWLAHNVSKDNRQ
Chain of PI3Kδ (p110δ/p85α) (P27986 whole entry partner): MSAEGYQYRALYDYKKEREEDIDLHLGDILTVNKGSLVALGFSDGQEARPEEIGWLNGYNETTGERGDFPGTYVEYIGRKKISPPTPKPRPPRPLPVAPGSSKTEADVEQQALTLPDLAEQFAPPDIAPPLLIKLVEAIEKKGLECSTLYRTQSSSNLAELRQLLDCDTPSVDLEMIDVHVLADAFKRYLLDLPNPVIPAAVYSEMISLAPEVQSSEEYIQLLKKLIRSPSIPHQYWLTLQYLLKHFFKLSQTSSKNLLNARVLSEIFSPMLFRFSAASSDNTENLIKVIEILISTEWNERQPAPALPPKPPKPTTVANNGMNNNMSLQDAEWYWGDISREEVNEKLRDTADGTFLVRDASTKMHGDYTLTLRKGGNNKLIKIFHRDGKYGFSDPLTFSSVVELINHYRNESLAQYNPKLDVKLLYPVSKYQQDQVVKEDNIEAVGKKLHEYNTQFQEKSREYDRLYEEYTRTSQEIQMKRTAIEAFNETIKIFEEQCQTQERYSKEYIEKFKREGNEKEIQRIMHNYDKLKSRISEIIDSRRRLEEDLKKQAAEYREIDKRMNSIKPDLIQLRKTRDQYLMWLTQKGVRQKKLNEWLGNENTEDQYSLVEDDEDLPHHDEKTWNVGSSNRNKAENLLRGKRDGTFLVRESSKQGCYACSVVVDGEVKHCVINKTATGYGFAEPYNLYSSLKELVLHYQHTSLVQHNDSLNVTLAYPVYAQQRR
Method for PI3Kδ (p110δ/p85α): [γ-^33P]ATP (10 mCi/mL) was purchased from Perking Elmer (Waltham, Mass.). […] PI3Kδ (p110δ/p85α) was purchased from Millipore (Bedford, Mass.). ATP, MgCl2, DTT, EDTA, MOPS and CHAPS were purchased from Sigma-Aldrich (St. Louis, Mo.). Wheat Germ Agglutinin (WGA) YSi SPA Scintillation Beads was purchased from GE healthcare life sciences (Piscataway, N.J.). The kinase reaction was conducted in polystyrene 384-well matrix white plate from Thermo Fisher Scientific in a final volume of 25 μL. Inhibitors were first diluted serially in DMSO and added to the plate wells before the addition of other reaction components. The final concentration of DMSO in the assay was 0.5%. […] Reactions were initiated by the addition of ATP, the final reaction mixture consisted of 20 μM PIP2, 20 μM ATP, 0.2 μCi [γ-^33P] ATP, 4 nM PI3Kδ. Reactions were incubated for 210 min and terminated by the addition of 40 μL SPA beads suspended in quench buffer: 150 mM potassium phosphate pH 8.0, 20% glycerol. 25 mM EDTA, 400 μM ATP. The final concentration of SPA beads was 1.0 mg/mL. After the plate sealing, plates were shaken overnight at room temperature and centrifuged at 1800 rpm for 10 minutes, the radioactivity of the product was determined by scintillation counting on Topcount (Perking Elmer).

On PI3Kδ (p110δ/p85α), `COc1c(C(C)n2nc(C)c3c(N)ncnc32)cc(Cl)c(C#N)c1C1CN(C[C@H](C)O)C1` (stereo partly drawn) [Compound 29, 4-[1-(4-amino-3-methyl-1H-pyrazolo[3,4-d]pyrimidin-1-yl)ethyl]-6-chloro-2-{1-[(2S)-2-hydroxypropyl]azetidin-3-yl}-3-methoxybenzonitrile] had an IC50 of less than 50 nM.
Regarding `N#CCC1(n2cc(-c3ncnc4[nH]ccc34)cn2)CN(C2CCN(C(=O)c3ccnc(C(F)(F)F)c3F)CC2)C1` [Compound 7, {1-{1-[3-Fluoro-2-(trifluoromethyl)isonicotinoyl]piperidin-4-yl}-3-[4-(7H-pyrrolo[2,3-d]pyrimidin-4-yl)-1H-pyrazol-1-yl]azetidin-3-yl}acetonitrile], the “IL10-induced expression of Pim2” value with Pfeiffer cells [1] (24 hours) was “blocked”. For the same compound, in assay [2], the IC50 is less than 10 nM. For the same compound, in assay [3], the JAK2/JAK1 is on record as more than 10.
As to `CCOc1c(C(C)n2nc(C)c3c(N)ncnc32)cc(C)c(C#N)c1-c1ccc(C(=O)N(C)C)nc1` (stereo not shown) [Compound 31, 5-{3-[1-(4-amino-3-methyl-1H-pyrazolo[3,4-d]pyrimidin-1-yl)ethyl]-6-cyano-2-ethoxy-5-methylphenyl}-N,N-dimethylpyridine-2-carboxamide], the IC50 at PI3Kδ (p110δ/p85α) was less than 50 nM.
In the case of `C[C@H](NC(=O)c1cc(F)c(N2CC(CC#N)(n3cc(-c4ncnc5[nH]ccc45)cn3)C2)cc1F)C(F)(F)F` [Compound 16, 4-{3-(cyanomethyl)-3-[4-(7H-pyrrolo[2,3-d]pyrimidin-4-yl)-1H-pyrazol-1-yl]azetidin-1-yl}-2,5-difluoro-N-[(1S)-2,2,2-trifluoro-1-methylethyl]benzamide], the STAT3 phosphorylation result with Pfeiffer cells [1] is listed as “inhibition”. Also, the pAKT entry in the assay on Pfeiffer cells [1] is reported as “no effect”. For the same compound, the figures for the IC50 (in assay [2]; in the assay with Pfeiffer cells [4] (setting [7])) were less than 10 nM and more than 1000 nM, respectively. Also, in assay [3], the JAK2/JAK1 is listed as more than 10. For the same compound, the “apoptosis (Annexin-V staining)” value with Pfeiffer cells [5] was “neither agent alone had a significant effect”.
Regarding `COc1c(C(C)n2nc(C)c3c(N)ncnc32)cc(Cl)c(C#N)c1C1CN(CCO)C1` (stereo not shown) [Compound 30, 4-[1-(4-amino-3-methyl-1H-pyrazolo[3,4-d]pyrimidin-1-yl)ethyl]-6-chloro-2-[1-(2-hydroxyethyl)azetidin-3-yl]-3-methoxybenzonitrile], the IC50 against PI3Kδ (p110δ/p85α) is less than 50 nM.
As for `Cc1csc2nc([C@H](C)Nc3ncnc4[nH]cnc34)c(-c3cccc(F)c3)c(=O)n12` [Compound 28, (S)-7-(1-(9H-purin-6-ylamino)ethyl)-6-(3-fluorophenyl)-3-methyl-5H-thiazolo[3,2-a]pyrimidin-5-one], the STAT3 phosphorylation entry in the assay with Pfeiffer cells [1] is given as “did not”. The pAKT entry with Pfeiffer cells [1] is given as “complete inhibition”. The IC50 in the assay with Pfeiffer cells [4] (setting [7]) was determined as 6360 nM; in the assay with Pfeiffer cells [4] (-IL-10, ATP readout), 670 nM. Further, the “apoptosis (Annexin-V staining)” value with Pfeiffer cells [5] was “neither agent alone had a significant effect”.
In the case of `CCOc1c(C(C)n2nc(C)c3c(N)ncnc32)cc(Cl)c(F)c1C1CNC(=O)C1` (stereo not shown) [Compound 32c, 4-{3-[1-(4-amino-3-methyl-1H-pyrazolo[3,4-d]pyrimidin-1-yl)ethyl]-5-chloro-2-ethoxy-6-fluorophenyl}pyrrolidin-2-one], the “anti-proliferative effects on Pfeiffer cancer cells” value in the assay with Pfeiffer cells [4] (in vitro) was “sensitive”. In addition, the “percent tumor growth inhibition” value in assay [6] (0.3 mg/kg oral twice daily for 14 days) was 22%; in assay [6] (1 mg/kg oral twice daily for 14 days), 24%; in assay [6] (3 mg/kg oral twice daily for 14 days), 36%; in assay [6] (10 mg/kg oral twice daily for 14 days) it was 58%.

One may read the IC50 as the point on the concentration scale where inhibition reaches its midpoint.
